Experiment [1] addresses T1, endogenous NrdEF (BsNrdEF) (Bacillus subtilis, UniProt P50620).
T1 sequence (P50620 1-700): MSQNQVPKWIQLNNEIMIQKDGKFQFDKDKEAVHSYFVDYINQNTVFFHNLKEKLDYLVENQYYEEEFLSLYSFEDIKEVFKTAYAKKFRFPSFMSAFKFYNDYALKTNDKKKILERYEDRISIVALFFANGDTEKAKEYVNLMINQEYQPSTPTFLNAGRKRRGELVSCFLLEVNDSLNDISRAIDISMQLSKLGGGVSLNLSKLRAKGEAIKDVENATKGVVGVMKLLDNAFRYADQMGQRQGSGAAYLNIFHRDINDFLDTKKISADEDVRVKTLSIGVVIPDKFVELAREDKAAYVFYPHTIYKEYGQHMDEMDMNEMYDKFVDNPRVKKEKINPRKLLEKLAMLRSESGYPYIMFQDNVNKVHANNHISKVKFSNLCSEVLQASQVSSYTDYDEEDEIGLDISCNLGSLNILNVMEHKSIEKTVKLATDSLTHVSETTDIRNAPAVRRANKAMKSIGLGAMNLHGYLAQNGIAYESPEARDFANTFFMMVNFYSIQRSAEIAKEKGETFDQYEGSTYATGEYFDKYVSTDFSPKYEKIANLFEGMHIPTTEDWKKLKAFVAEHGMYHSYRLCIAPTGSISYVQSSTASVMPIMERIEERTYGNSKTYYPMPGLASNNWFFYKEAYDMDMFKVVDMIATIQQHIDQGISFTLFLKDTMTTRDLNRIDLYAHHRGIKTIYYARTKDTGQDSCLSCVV
T1 sequence (P50621 1-329 partner): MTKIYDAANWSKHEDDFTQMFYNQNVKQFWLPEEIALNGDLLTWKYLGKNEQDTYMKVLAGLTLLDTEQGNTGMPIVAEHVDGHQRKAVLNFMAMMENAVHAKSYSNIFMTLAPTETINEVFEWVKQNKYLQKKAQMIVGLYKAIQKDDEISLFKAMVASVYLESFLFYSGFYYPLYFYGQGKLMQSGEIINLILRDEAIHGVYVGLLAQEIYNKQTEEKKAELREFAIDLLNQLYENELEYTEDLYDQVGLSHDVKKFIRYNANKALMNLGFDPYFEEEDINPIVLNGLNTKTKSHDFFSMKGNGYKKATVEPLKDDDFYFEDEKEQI
As to the kind of experiment: HClO4 release and high-resolution LC/ESI-MS of copurified nucleotide. Type of experiment: binding. The settings on record: stoichiometry, not affinity; native copurified ligand; protein ~80% pure.

Experiment [2] deals with T2, B. subtilis class Ib RNR (NrdE with Mn(III)2-Y• NrdF) (Bacillus subtilis, UniProt P50620).
T2 sequence (P50620 1-700): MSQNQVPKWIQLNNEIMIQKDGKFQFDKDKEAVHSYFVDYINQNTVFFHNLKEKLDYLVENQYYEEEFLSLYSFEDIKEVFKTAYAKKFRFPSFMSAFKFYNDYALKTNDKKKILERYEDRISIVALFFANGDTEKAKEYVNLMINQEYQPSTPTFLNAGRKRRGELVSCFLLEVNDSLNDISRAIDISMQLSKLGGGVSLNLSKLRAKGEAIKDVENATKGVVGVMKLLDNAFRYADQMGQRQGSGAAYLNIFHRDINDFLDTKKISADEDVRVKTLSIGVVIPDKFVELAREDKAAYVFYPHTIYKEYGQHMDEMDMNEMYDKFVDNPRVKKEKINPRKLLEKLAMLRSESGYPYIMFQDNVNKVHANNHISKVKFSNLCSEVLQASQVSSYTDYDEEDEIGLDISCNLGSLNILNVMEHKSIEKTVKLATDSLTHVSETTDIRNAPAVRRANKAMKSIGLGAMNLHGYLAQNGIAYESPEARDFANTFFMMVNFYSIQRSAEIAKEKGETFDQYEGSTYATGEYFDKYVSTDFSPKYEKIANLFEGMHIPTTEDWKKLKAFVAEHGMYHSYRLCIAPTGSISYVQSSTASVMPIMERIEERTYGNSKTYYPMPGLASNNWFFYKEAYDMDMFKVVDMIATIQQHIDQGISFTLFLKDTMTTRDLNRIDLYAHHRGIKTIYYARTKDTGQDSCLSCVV
T2 sequence (P50621 1-329 partner): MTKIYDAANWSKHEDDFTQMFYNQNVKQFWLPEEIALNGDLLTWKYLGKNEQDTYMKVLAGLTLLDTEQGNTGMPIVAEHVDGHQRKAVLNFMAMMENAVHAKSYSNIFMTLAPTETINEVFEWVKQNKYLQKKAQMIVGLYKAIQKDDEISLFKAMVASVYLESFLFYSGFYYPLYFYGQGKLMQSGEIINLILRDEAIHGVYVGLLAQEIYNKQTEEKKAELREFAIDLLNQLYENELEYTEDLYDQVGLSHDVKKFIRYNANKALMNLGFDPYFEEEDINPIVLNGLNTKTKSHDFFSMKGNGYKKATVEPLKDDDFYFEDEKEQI
Kind of experiment: spectrophotometric RNR activity assay, dATP titration. It counts as biochemical. The settings on record: read-out: % activity remaining at 25 μM.

Experiment [3] deals with T3, Bacillus subtilis NrdE isolated from B. subtilis as the NrdE⋅NrdF (NrdEF) complex (Bacillus subtilis, UniProt P50620 1-700).
T3 sequence (looked up): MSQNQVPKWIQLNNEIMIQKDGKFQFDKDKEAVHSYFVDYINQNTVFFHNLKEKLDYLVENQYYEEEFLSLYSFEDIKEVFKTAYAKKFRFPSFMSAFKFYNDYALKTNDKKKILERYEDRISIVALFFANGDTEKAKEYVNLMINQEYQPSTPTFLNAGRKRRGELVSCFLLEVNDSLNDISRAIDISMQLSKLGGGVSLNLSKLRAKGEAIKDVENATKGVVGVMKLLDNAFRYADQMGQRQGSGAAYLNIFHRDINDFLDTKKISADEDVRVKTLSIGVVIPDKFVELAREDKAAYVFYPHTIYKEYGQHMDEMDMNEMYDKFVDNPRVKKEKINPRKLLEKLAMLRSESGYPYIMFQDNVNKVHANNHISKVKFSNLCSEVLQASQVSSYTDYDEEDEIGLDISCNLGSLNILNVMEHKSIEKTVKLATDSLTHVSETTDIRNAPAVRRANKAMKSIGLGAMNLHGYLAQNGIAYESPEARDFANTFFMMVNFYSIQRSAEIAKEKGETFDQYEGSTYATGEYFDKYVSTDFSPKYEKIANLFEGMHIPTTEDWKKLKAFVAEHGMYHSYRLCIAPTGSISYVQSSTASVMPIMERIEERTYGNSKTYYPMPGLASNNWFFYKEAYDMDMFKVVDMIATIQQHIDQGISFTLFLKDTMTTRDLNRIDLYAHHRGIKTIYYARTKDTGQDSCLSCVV
As to the kind of experiment: co-purification from B. subtilis.

In experiment [1], `Nc1ncnc2c1ncn2[C@H]1C[C@H](O)[C@@H](COP(=O)(O)O)O1` [dAMP] came in with a dAMP/α of 0.3 per α.
Regarding `Nc1ncnc2c1ncn2[C@H]1C[C@H](O)[C@@H](COP(=O)(O)OP(=O)(O)OP(=O)(O)O)O1` [dATP], in experiment [2], the remaining activity at 25 µM is around 15%.

B1: Bacillus subtilis NrdF (Mn-loaded) isolated from B. subtilis as the NrdE⋅NrdF (NrdEF) complex (enzyme, UniProt P50621 1-329, looked up)
chain: MTKIYDAANWSKHEDDFTQMFYNQNVKQFWLPEEIALNGDLLTWKYLGKNEQDTYMKVLAGLTLLDTEQGNTGMPIVAEHVDGHQRKAVLNFMAMMENAVHAKSYSNIFMTLAPTETINEVFEWVKQNKYLQKKAQMIVGLYKAIQKDDEISLFKAMVASVYLESFLFYSGFYYPLYFYGQGKLMQSGEIINLILRDEAIHGVYVGLLAQEIYNKQTEEKKAELREFAIDLLNQLYENELEYTEDLYDQVGLSHDVKKFIRYNANKALMNLGFDPYFEEEDINPIVLNGLNTKTKSHDFFSMKGNGYKKATVEPLKDDDFYFEDEKEQI
Turning to B1, the “stoichiometry N” value in experiment [3] is around 1.

The values above are taken from article PMC5960316 (Proceedings of the National Academy of Sciences of the …, 2018).
